Values quoted from earlier work as cited in patent publication US20180344749A1, “CONTROLLED RELEASE FORMULATIONS OF SALICLATE-RELEASING ACTIVES” (Cogwellin, LLC, priority 2015, published 2018).

Key:
tau acetylation = conditions: aspirin rapidly loses its acetyl group
acetyltransferase p300 = acetyltransferase p300 (Homo sapiens, UniProt Q09472); conditions: for tau levels: enhance tau turnover
[1] = system: PS19 transgenic mouse model of FTD; conditions: administration after disease onset
[2] = in terms of salicylic acid equivalents
[3] = not given; remark: listed apart in the source
[4] = at anti-inflammatory doses

Sequence of acetyltransferase p300 (Q09472 whole entry): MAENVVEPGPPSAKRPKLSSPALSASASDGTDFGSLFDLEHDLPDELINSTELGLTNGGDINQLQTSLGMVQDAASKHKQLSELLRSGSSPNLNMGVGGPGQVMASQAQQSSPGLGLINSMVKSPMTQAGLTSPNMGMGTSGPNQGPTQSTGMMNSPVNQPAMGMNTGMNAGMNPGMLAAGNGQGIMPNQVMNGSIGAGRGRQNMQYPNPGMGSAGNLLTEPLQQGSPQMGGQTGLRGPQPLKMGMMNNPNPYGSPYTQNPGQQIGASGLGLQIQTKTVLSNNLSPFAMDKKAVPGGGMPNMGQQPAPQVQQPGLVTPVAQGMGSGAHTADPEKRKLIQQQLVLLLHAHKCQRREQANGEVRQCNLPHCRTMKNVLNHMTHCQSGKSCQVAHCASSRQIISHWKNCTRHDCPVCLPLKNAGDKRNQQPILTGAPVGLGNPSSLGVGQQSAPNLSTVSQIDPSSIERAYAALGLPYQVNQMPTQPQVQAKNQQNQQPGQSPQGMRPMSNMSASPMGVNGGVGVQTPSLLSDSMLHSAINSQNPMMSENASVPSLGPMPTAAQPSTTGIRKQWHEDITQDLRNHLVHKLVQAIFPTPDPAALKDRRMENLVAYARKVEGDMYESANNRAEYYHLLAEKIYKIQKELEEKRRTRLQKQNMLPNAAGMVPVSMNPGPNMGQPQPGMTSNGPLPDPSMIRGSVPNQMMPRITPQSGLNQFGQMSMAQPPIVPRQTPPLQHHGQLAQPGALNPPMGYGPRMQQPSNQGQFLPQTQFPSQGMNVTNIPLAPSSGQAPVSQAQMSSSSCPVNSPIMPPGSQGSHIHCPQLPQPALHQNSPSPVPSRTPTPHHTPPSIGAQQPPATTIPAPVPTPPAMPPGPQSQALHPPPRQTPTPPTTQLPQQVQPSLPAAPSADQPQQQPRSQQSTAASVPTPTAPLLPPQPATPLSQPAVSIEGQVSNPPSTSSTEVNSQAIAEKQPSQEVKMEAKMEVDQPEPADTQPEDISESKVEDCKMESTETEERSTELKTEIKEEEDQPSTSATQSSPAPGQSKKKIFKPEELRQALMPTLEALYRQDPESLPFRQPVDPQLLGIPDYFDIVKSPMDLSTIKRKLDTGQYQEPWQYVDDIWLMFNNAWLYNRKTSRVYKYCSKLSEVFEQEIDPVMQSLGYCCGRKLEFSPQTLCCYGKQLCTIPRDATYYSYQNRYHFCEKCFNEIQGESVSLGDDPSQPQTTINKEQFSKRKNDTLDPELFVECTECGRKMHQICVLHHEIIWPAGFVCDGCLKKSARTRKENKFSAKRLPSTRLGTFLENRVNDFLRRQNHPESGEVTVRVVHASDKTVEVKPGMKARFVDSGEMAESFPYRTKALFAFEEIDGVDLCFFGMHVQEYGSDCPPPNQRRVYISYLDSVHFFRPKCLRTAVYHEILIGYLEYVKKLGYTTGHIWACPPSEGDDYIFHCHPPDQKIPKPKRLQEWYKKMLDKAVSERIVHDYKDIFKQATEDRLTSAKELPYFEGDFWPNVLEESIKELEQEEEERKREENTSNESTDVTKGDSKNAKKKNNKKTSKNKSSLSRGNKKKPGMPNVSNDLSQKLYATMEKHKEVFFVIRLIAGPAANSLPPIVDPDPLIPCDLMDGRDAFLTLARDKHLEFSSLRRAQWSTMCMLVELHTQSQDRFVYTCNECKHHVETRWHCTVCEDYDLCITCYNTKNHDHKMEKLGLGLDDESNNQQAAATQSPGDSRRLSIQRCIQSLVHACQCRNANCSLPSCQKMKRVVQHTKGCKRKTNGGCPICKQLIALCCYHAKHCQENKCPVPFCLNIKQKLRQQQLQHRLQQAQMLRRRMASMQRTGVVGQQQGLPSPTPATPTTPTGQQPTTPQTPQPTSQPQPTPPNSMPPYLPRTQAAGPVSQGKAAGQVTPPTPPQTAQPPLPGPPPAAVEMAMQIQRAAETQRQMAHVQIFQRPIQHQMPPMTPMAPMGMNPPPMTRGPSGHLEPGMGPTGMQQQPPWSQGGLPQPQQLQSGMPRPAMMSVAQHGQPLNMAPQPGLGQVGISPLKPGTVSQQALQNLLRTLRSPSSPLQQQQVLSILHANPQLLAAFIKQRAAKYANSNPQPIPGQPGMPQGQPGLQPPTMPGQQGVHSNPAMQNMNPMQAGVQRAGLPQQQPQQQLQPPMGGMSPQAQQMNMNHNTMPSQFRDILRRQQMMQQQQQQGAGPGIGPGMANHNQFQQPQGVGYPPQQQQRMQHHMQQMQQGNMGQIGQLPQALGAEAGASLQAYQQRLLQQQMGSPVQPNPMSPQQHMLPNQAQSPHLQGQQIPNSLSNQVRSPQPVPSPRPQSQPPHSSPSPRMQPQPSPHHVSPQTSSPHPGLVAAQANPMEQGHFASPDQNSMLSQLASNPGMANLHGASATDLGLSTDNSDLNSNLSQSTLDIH

behaviour in the pH of the stomach | acetyltransferase p300-induced tau acetylation (acetyltransferase p300) | tau levels (acetyltransferase p300) | solubility in the pH of the small intestine (small intestine pH) | salicylic acid obtained relative to an equivalent dose of aspirin (relative AUC) [2] | brain penetration ([3]; in vivo) | gastrointestinal bleeding and gastric erosions compared with aspirin [4] | SMILES | tau acetylation in cell cultures (tau acetylation) | hippocampal atrophy [1] | levels of total tau and tau acetylated at K174 [1] | p300 activity [1] | tau-induced memory deficits [1] | stability of salicylate levels after salsalate ([3]; over 8 hours)
soluble | – | – | – | – | – | – | CC(=O)Oc1ccccc1C(=O)O [aspirin, acetylsalicylic acid] | boost tau acetylation | – | – | – | – | –
– | inhibited | reduce tau levels | – | – | – | – | O=C(O)c1ccccc1O [salicylate, salicylic acid] | – | – | – | – | – | –
undergoes particulate dispersion | inhibited | reduce tau levels | soluble | approximately 84% | penetrates the brain | significantly less | O=C(Oc1ccccc1C(=O)O)c1ccccc1O [salsalate] | – | prevented | lowered | inhibited p300 activity | rescued | relatively stable salicylate levels over 8 hours
